# Read-outs that look alike come from different tables or passages of the source.
# How the values were obtained:
# Aspergillus fumigatus = assay: In vitro antifungal activity against Aspergillus fumigatus, MIC by twofold agar dilution (Test Example 4); type: cell-based
# Procedure: MICs were determined by the twofold agar dilution method with casitone agar which constituted with 0.9% bactocasitone, 1% bacto-yeast extract, 2% glucose, 0.1% KH2 PO4, 0.1% Na2 HPO4, 1% Na3 C6 H5 O7 and 1.6% agar. A loopful of each inoculum (1×10^6 conidia/ml) was streaked onto the agar plate containing a compound, and a fungal growth was observed after incubation for 48 hours at 35° C. The MIC was determined as the lowest drug concentration which prevented a visible fungal growth.
# Trichophyton rubrum = assay: In vitro activity against Trichophyton rubrum, MIC by twofold macro-broth dilution (Test Example 1); type: cell-based
# Procedure: (§1) Minimum inhibitory concentrations (MICs) were determined by the twofold macro-broth dilution method with Sabouraud's glucose broth which constituted with 1% bactopeptone and 4% glucose. To each tube containing 9.8 ml of the broth, 0.1 ml of each testing compound dissolved in DMSO and 0.1 ml of a conidial suspension (1×10^6 conidia/ml) were added. The fungal growth was observed after incubation for 7 days at 27° C. The MIC was determined as the lowest drug concentration which prevented a visible fungal growth.
# Candida albicans = assay: In vitro antifungal activity against Candida albicans, MIC by twofold micro-broth dilution (Test Example 3); type: cell-based
# Procedure: MICs were determined by the twofold micro-broth dilution method with RPMI 1640 buffered with morphorino-propanesulfonic acid to a final molarity of 0.165M (pH 7.0). One hundred μl of a yeast cell suspension (1 to 5×10^3 cells/ml) and 100 μl of the compound-containing medium were pipetted into each well flat-bottomed microtiter plates. After incubation for 48 hours at 35° C., the turbidity of each well was measured at 630 nm.
# [1] = system: Trichophyton mentagrophytes; assay: In vitro activity against Trichophyton mentagrophytes, MIC by twofold macro-broth dilution (Test Example 1); type: cell-based; settings: Trichophyton mentagrophytes, 7 days at 27° C.
# Procedure: as §1
# [2] = system: trichophyton mentagrophytes TIMM 2789; assay: Therapeutic efficacy on experimental tinea pedis in guinea pigs (Test Example 2); type: in vivo
# Procedure: Male Hartley guinea pigs (Japan SLC Inc.) weighing 400 to 620 g were used for the infection study. One side of a paper disc (1.5 mm thick×8 mm diameter) was covered with a piece of aluminum foil while the other side was free to carry the inoculum suspension. The disc was immersed with 50 μl of the inoculum suspension (trichophyton mentagrophytes TIMM 2789, 1×10^8 conidia/ml), and was then fixed on the planta pedis of animal feet with an adhesive elastic tape. The disc was removed on the seventh day postinfection. Each agent dissolved in PEG 400 (0.1 ml/locus) was topically applied to the whole soles of guinea pigs once a day for 3 consecutive days, starting on the 10th day postinfection. Five days after the last treatment, the skin tissue from each planta pedis and the corresponding tarsus of all animals was cut into small blocks (about 2×2 mm). Ten skin blocks obtained from each part of the foot were implanted on a Sabouraud's glucose agar plate containing antibiotics, and were cultured at 27° C. for 14 days. The skin blocks yielding fungal growth were regarded as culture-positive, and the foot (planta pedis plus tarsus) with more than one culture-positive skin block was considered fungus-positive. In addition, the intensity of infection was assessed by the scores based on the number of culture-positive skin blocks. Namely, +10, +9, +8, +7, +6, +5, +4, +3, +2, +1 or 0 was given as the score according to the corresponding number of culture-positive skin blocks out of ten skin blocks studied. Statistical analyses for the rate of fungus-positive feet and the average intensity of infection were assessed by Fisher's exact probably test and Mann-Whitney's U-test, respectively.
# [3] = IFO5467, 168 h, strain IFO 5467, 7 days at 27° C.
# [4] = IFO5807, 168 h, strain IFO 5807, 7 days at 27° C.
# [5] = IFO5808, 168 h, strain IFO 5808, 7 days at 27° C.
# [6] = IFO6203, 168 h, strain IFO 6203, 7 days at 27° C.
# [7] = IFO6204, 168 h, strain IFO 6204, 7 days at 27° C.
# [8] = IFO9185, 168 h, strain IFO 9185, 7 days at 27° C.
# [9] = TIMM1822, 168 h, strain TIMM 1822, 7 days at 27° C.
# [10] = TIMM1823, 168 h, strain TIMM 1823, 7 days at 27° C.
# [11] = TIMM1824, 168 h, strain TIMM 1824, 7 days at 27° C.
# [12] = TIMM1830, 168 h, strain TIMM 1830, 7 days at 27° C.
# [13] = IFO0197, strain IFO 0197, 80% inhibition, 48 hours at 35° C., pH 7.0, read-out: MIC
# [14] = IFO0579, strain IFO 0579, 80% inhibition, 48 hours at 35° C., pH 7.0, read-out: MIC
# [15] = IFO1269, strain IFO 1269, 80% inhibition, 48 hours at 35° C., pH 7.0, read-out: MIC
# [16] = IFO1270, strain IFO 1270, 80% inhibition, 48 hours at 35° C., pH 7.0, read-out: MIC
# [17] = IFO1385, strain IFO 1385, 80% inhibition, 48 hours at 35° C., pH 7.0, read-out: MIC
# [18] = IFO1386, strain IFO 1386, 80% inhibition, 48 hours at 35° C., pH 7.0, read-out: MIC
# [19] = TIMM3163, strain TIMM 3163, 80% inhibition, 48 hours at 35° C., pH 7.0, read-out: MIC
# [20] = TIMM3164, strain TIMM 3164, 80% inhibition, 48 hours at 35° C., pH 7.0, read-out: MIC
# [21] = TIMM3165, strain TIMM 3165, 80% inhibition, 48 hours at 35° C., pH 7.0, read-out: MIC
# [22] = TIMM3166, strain TIMM 3166, 80% inhibition, 48 hours at 35° C., pH 7.0, read-out: MIC
# [23] = IFO5466, 168 h, strain IFO 5466
# [24] = IFO5809, 168 h, strain IFO 5809
# [25] = IFO5810, 168 h, strain IFO 5810
# [26] = IFO5811, 168 h, strain IFO 5811
# [27] = IFO5929, 168 h, strain IFO 5929
# [28] = TIMM1189, 168 h, strain TIMM 1189
# [29] = TIMM1814, 168 h, strain TIMM 1814
# [30] = TIMM1815, 168 h, strain TIMM 1815
# [31] = TIMM1817, 168 h, strain TIMM 1817
# [32] = TIMM2789, 168 h, strain TIMM 2789
# [33] = 1% in PEG 400, topical once a day for 3 days, p < 0.01 vs untreated and PEG 400, Compound (A) also p < 0.05 vs 1% Racemic Compound (A)
# [34] = 1% in PEG 400, topical once a day for 3 days, p < 0.01 vs untreated and PEG 400 control
structure (smiles),measurement,setting,value
"N#C/C(=C1/SCC(c2ccccc2Cl)S1)n1ccnc1 (racemic) [Racemic Compound (A), (±)-(E)-[4-(2-chlorophenyl)-1,3-dithiolan-2-ylidene]-1-imidazolylacetonitrile]",MIC,"Aspergillus fumigatus; TIMM0063, strain TIMM 0063, 48 hours at 35° C., read-out: MIC",0.0013 µg/mL
same,MIC,"Aspergillus fumigatus; TIMM0078, strain TIMM 0078, 48 hours at 35° C., read-out: MIC",0.0013 µg/mL
same,MIC,"Aspergillus fumigatus; TIMM1728, strain TIMM 1728, 48 hours at 35° C., read-out: MIC",0.0013 µg/mL
same,MIC,"Aspergillus fumigatus; TIMM1767, strain TIMM 1767, 48 hours at 35° C., read-out: MIC",0.0025 µg/mL
same,MIC,Trichophyton rubrum; [3],0.005 µg/mL
same,MIC,Trichophyton rubrum; [4],0.01 µg/mL
same,MIC,Trichophyton rubrum; [5],0.01 µg/mL
same,MIC,Trichophyton rubrum; [6],0.005 µg/mL
same,MIC,Trichophyton rubrum; [7],0.01 µg/mL
same,MIC,Trichophyton rubrum; [8],0.0025 µg/mL
same,MIC,Trichophyton rubrum; [9],0.005 µg/mL
same,MIC,Trichophyton rubrum; [10],0.01 µg/mL
same,MIC,Trichophyton rubrum; [11],0.005 µg/mL
same,MIC,Trichophyton rubrum; [12],0.0013 µg/mL
same,MIC,Candida albicans; [13],0.25 µg/mL
same,MIC,Candida albicans; [14],0.0625 µg/mL
same,MIC,Candida albicans; [15],0.125 µg/mL
same,MIC,Candida albicans; [16],1 µg/mL
same,MIC,Candida albicans; [17],0.25 µg/mL
same,MIC,Candida albicans; [18],0.25 µg/mL
same,MIC,Candida albicans; [19],16 µg/mL
same,MIC,Candida albicans; [20],0.5 µg/mL
same,MIC,Candida albicans; [21],4 µg/mL
same,MIC,Candida albicans; [22],2 µg/mL
same,MIC,[1]; [23],0.04 µg/mL
same,MIC,[1]; [24],0.01 µg/mL
same,MIC,[1]; [25],0.01 µg/mL
same,MIC,[1]; [26],0.04 µg/mL
same,MIC,[1]; [27],0.02 µg/mL
same,MIC,[1]; [28],0.04 µg/mL
same,MIC,[1]; [29],0.04 µg/mL
same,MIC,[1]; [30],0.04 µg/mL
same,MIC,[1]; [31],0.04 µg/mL
same,MIC,[1]; [32],0.01 µg/mL
same,Fungus-positive rate (%),[2]; [33],40%
same,Fungus-positive rate: The number of positive feet/The total number of feet,[2]; [33],4/10 and four feet among the inoculated ten feet
same,"Average intensity of infection, planta pedis (score 0 to +10)",[2]; [34],+0.6
same,"Average intensity of infection, tarsus (score 0 to +10)",[2]; [34],+0.2
same,curative effect (in words),[2]; 1% treated group,significant curative effect
"CCC(C)n1ncn(-c2ccc(N3CCN(c4ccc(OC[C@H]5CO[C@](Cn6cncn6)(c6ccc(Cl)cc6Cl)O5)cc4)CC3)cc2)c1=O (relative stereo) [ITZ, (±)1-sec-Butyl-4-[p[4[p[[2R*,4S*2-(2,4-dichlorophenyl)-2-(1H-1,2,4-trizol-1-ylmethyl)-1,3-dioxolan-4-yl]methoxy]phenyl1-piperazinyl]phenyl.DELTA^21,2,4-triazolin-5-one]",MIC,"Aspergillus fumigatus; TIMM0063, 48 h",0.04 µg/mL
same,MIC,"Aspergillus fumigatus; TIMM0078, 48 h",0.04 µg/mL
same,MIC,"Aspergillus fumigatus; TIMM1728, 48 h",0.08 µg/mL
same,MIC,"Aspergillus fumigatus; TIMM1767, 48 h",0.08 µg/mL
"OC(Cn1cncn1)(Cn1cncn1)c1ccc(F)cc1F [FCZ, 2(2,4-Difluorophenyl)-1,3-bis(1H-1,2,4-triazol-1-yl)-2-propanol]",MIC,"Candida albicans; IFO0197, 48 h, pH 7",0.25 µg/mL
same,MIC,"Candida albicans; IFO0579, 48 h, pH 7",0.125 µg/mL
same,MIC,"Candida albicans; IFO1269, 48 h, pH 7",0.25 µg/mL
same,MIC,"Candida albicans; IFO1270, 48 h, pH 7",0.25 µg/mL
same,MIC,"Candida albicans; IFO1385, 48 h, pH 7",0.25 µg/mL
same,MIC,"Candida albicans; IFO1386, 48 h, pH 7",0.5 µg/mL
same,MIC,"Candida albicans; TIMM3163, 48 h, pH 7",16 µg/mL
same,MIC,"Candida albicans; TIMM3164, 48 h, pH 7",2 µg/mL
same,MIC,"Candida albicans; TIMM3165, 48 h, pH 7",> 32 µg/mL
same,MIC,"Candida albicans; TIMM3166, 48 h, pH 7",8 µg/mL
"CN(C/C=C/C#CC(C)(C)C)Cc1cccc2ccccc12 [TBF, (E)N-(6,6-Dimethyl-2-hepten-4-ynyl)-N-methyl-1-naphthalenemethaneamine hyrochloride]",MIC,Trichophyton rubrum; [3],0.005 µg/mL
same,MIC,Trichophyton rubrum; [4],0.005 µg/mL
same,MIC,Trichophyton rubrum; [5],0.005 µg/mL
same,MIC,Trichophyton rubrum; [6],0.0025 µg/mL
same,MIC,Trichophyton rubrum; [7],0.005 µg/mL
same,MIC,Trichophyton rubrum; [8],0.0025 µg/mL
same,MIC,Trichophyton rubrum; [9],0.0025 µg/mL
same,MIC,Trichophyton rubrum; [10],0.0025 µg/mL
same,MIC,Trichophyton rubrum; [11],0.0013 µg/mL
same,MIC,Trichophyton rubrum; [12],0.00063 µg/mL
same,MIC,Candida albicans; [13],> 32 µg/mL
same,MIC,Candida albicans; [14],> 32 µg/mL
same,MIC,Candida albicans; [15],4 µg/mL
same,MIC,Candida albicans; [16],> 32 µg/mL
same,MIC,Candida albicans; [17],> 32 µg/mL
same,MIC,Candida albicans; [18],> 32 µg/mL
same,MIC,Candida albicans; [19],> 32 µg/mL
same,MIC,Candida albicans; [20],> 32 µg/mL
same,MIC,Candida albicans; [21],> 32 µg/mL
same,MIC,Candida albicans; [22],> 32 µg/mL
same,MIC,[1]; [23],0.02 µg/mL
same,MIC,[1]; [24],0.01 µg/mL
same,MIC,[1]; [25],0.005 µg/mL
same,MIC,[1]; [26],0.01 µg/mL
same,MIC,[1]; [27],0.01 µg/mL
same,MIC,[1]; [28],0.01 µg/mL
same,MIC,[1]; [29],0.01 µg/mL
same,MIC,[1]; [30],0.02 µg/mL
same,MIC,[1]; [31],0.01 µg/mL
same,MIC,[1]; [32],0.0025 µg/mL

# From patent publication US5900488A, “Method for treating mycosis using imidazolylacetonitrile derivatives” (Nihon Nohyaku Co., Ltd., priority 1995, dated 1999)
